In ChEMBL document CHEMBL3272190, “(2-exo-3-endo)-2-Aryltropane-3-carboxylic esters, a new class of narcotic antagonists” (J Med Chem, 1978):
Activity calls are given as the source filed them. The calls are words filed in the database; no cut-off is given here.

How the values were obtained:
Rattus norvegicus [1] = test: Narcotic analgesic activity in sc dosed rat assessed as inhibition of phenazocine-induced effect by D'Amour-Smith tail flick test; assay type: functional
Mus musculus [2] = test: Antiwrithing activity in sc dosed mouse assessed as prevention of acetylcholine-induced abdominal constriction response; assay type: functional; details: Abdomen
Mus musculus [3] = test: Antiwrithing activity in sc dosed mouse assessed as prevention of phenyl-p-benzoquinone-induced abdominal constriction response; assay type: functional; details: Abdomen
Mus musculus [4] = test: Induction of depression in mouse at 75 mg/kg, sc; assay type: organism-based; parameters: dose 75 mg/kg, route subcutaneous; details: in vivo
Mus musculus [5] = test: Antiwrithing activity in po dosed mouse assessed as prevention of acetylcholine-induced abdominal constriction response; assay type: functional; details: Abdomen
Mus musculus [6] = test: Antiwrithing activity in po dosed mouse assessed as prevention of phenyl-p-benzoquinone-induced abdominal constriction response; assay type: functional; details: Abdomen
Rattus norvegicus [7] = test: Narcotic analgesic activity in po dosed rat assessed as inhibition of phenazocine-induced effect by D'Amour-Smith tail flick test; assay type: functional
Rattus norvegicus [8] = test: Induction of tremors in rat at 120 mg/kg, sc; assay type: organism-based; parameters: dose 120 mg/kg, route subcutaneous; details: in vivo
Rattus norvegicus [9] = test: Induction of depression in rat at 75 mg/kg, sc; assay type: organism-based; parameters: dose 75 mg/kg, route subcutaneous; details: in vivo
Mus musculus [10] = test: Analgesic activity in mouse assessed as inhibition of intraarterial bradykinin-induced effect at 50 mg/kg, sc; assay type: functional, organism-based; parameters: dose 50 mg/kg
Rattus norvegicus [11] = test: Narcotic analgesic activity in rat assessed as inhibition of phenazocine-induced effect at 80 mg, sc by D'Amour-Smith tail flick test; assay type: functional
Rattus norvegicus [12] = test: Toxicity in rat assessed as mortality at 160 mg, sc; assay type: organism-based; details: in vivo
Rattus norvegicus [13] = test: Induction of convulsion in rat at 120 mg/kg, sc; assay type: organism-based; parameters: dose 120 mg/kg, route subcutaneous; details: in vivo
Mus musculus [14] = test: Induction of convulsion in mouse at 100 mg/kg, sc; assay type: organism-based; parameters: dose 100 mg/kg, route subcutaneous; details: in vivo
Mus musculus [15] = test: Antiwrithing activity in mouse assessed as prevention of acetylcholine-induced abdominal constriction response at 15 mg/kg, sc; assay type: functional, Abdomen; details: route subcutaneous
Mus musculus [16] = test: Toxicity in mouse assessed as mortality at >15 mg/kg, sc; assay type: organism-based; details: in vivo
Mus musculus [17] = test: Induction of convulsion in mouse at 75 mg/kg, sc; assay type: organism-based; parameters: dose 75 mg/kg, route subcutaneous; details: in vivo
Mus musculus [18] = test: Induction of hyperactiveness in mouse at 30 mg/kg, sc; assay type: organism-based; parameters: dose 30 mg/kg, route subcutaneous; details: in vivo
Rattus norvegicus [19] = test: Analgesic activity in rat assessed as inhibition of intraarterial bradykinin-induced effect up to 100 mg/kg, sc; assay type: functional; parameters: scale not given: the % may be the effect or the level left; details: route subcutaneous
Mus musculus [20] = test: Induction of hyperactiveness in mouse at 75 mg/kg, sc; assay type: organism-based; parameters: dose 75 mg/kg, route subcutaneous; details: in vivo
Rattus norvegicus [21] = test: Narcotic analgesic activity in rat assessed as inhibition of phenazocine-induced effect at 10 mg, ip by D'Amour-Smith tail flick test; assay type: functional, organism-based
Rattus norvegicus [22] = test: Toxicity in rat assessed as mortality at >10 mg, ip; assay type: organism-based; details: in vivo
Mus musculus [23] = test: Antiwrithing activity in mouse assessed as prevention of acetylcholine-induced abdominal constriction response at 100 mg/kg, sc; assay type: functional, Abdomen; details: route subcutaneous
Mus musculus [24] = test: Antiwrithing activity in mouse assessed as prevention of acetylcholine-induced abdominal constriction response at 25 mg/kg, sc; assay type: functional, Abdomen; details: route subcutaneous

CN1[C@@H]2CC[C@@H]1[C@@H](c1ccccc1)[C@@H](C(=O)O)C2 (racemic)
AD50 (Rattus norvegicus [1]): >80 mg/kg

COC(=O)[C@H]1CCN(C)C[C@@H]1c1cccs1 (relative stereo)
AD50 (Rattus norvegicus [1]): 5.6 mg/kg

COC(=O)C1C[C@H]2CC[C@H]([C@H]1c1cccs1)N2C (mixture of isomers)
ED50 (Mus musculus [2]): 13 mg/kg
ED50 (Mus musculus [3]): 60 mg/kg
AD50 (Rattus norvegicus [1]): 4.9 mg/kg
Activity (Mus musculus [4]): Toxic

COC(=O)[C@H]1C[C@H]2CC[C@@H](N2)[C@H]1c1ccccc1 (racemic)
ED50 (Mus musculus [2]): 3.4 mg/kg
ED50 (Mus musculus [5]): 8.4 mg/kg
ED50 (Mus musculus [3]): 22 mg/kg
ED50 (Mus musculus [6]): 100 mg/kg
AD50 (Rattus norvegicus [1]): 2.1 mg/kg
AD50 (Rattus norvegicus [7]): 4.1 mg/kg
Activity (Rattus norvegicus [8]): Toxic
Activity (Rattus norvegicus [9]): Toxic
Activity (Mus musculus [10]): Active

CN1CC[C@]23c4c5ccc(O)c4O[C@H]2[C@@H](O)C=C[C@H]3[C@H]1C5 [MORPHINE]
AD50 (Rattus norvegicus [1]): 29 mg/kg
AD50 (Rattus norvegicus [7]): 13 mg/kg

COC(=O)[C@H]1C[C@H]2CC[C@H]([C@H]1Cc1ccccc1)N2C (racemic)
ED50 (Mus musculus [2]): 4.4 mg/kg
ED50 (Mus musculus [3]): 20 mg/kg
ED50 (Rattus norvegicus [1]; Rattus norvegicus, Tail, sc): 54 mg/kg
inhibition (INH) (Rattus norvegicus [11]): 69%
Activity (Rattus norvegicus [12]): Toxic
Activity (Rattus norvegicus [13]): Toxic
Activity (Mus musculus [14]): Toxic

COC(=O)[C@H]1C[C@H]2CC[C@H]([C@H]1c1ccccc1)N2CC1CC1 (racemic)
ED50 (Mus musculus [2]): 10 mg/kg
AD50 (Rattus norvegicus [1]): 10 mg/kg
Activity (Mus musculus [15]): 67%
Activity (Mus musculus [16]): Toxic
Activity (Mus musculus [17]): Toxic
Activity (Mus musculus [18]): Toxic

COC(=O)[C@H]1C[C@H]2CC[C@@H]([C@H]1c1ccccc1)N2C
AD50 (Rattus norvegicus [1]): 3.3 mg/kg

COC(=O)[C@@H]1C[C@H]2CC[C@H]([C@H]1c1ccccc1)N2Cc1ccccc1 (racemic)
ED50 (Mus musculus [2]): > 75 mg/kg
ED50 (Mus musculus [5]): 21 mg/kg
AD50 (Rattus norvegicus [1]): >80 mg/kg

COC(=O)[C@H]1C[C@H]2CC[C@@H](N2)[C@H]1c1cccc(O)c1
ED50 (Mus musculus [2]): 60 mg/kg
AD50 (Rattus norvegicus [1]): >80 mg/kg

CC(C)OC(=O)[C@H]1C[C@H]2CC[C@H]([C@H]1c1ccccc1)N2C (racemic)
ED50 (Mus musculus [2]): 16 mg/kg
AD50 (Rattus norvegicus [1]): >80 mg/kg
Activity (Rattus norvegicus [13]): Toxic
Activity (Mus musculus [18]): Toxic

C=CCN1CC[C@]23c4c5ccc(O)c4O[C@H]2[C@@H](O)C=C[C@H]3[C@H]1C5 [NALORPHINE]
ED50 (Mus musculus [3]): 15 mg/kg
AD50 (Rattus norvegicus [1]): 0.1 mg/kg
AD50 (Rattus norvegicus [7]): 6 mg/kg

COC(=O)[C@@H]1C[C@H]2CC[C@H]([C@H]1c1cccc(O)c1)N2C (racemic)
ED50 (Mus musculus [2]): 24 mg/kg
ED50 (Mus musculus [3]): 100 mg/kg
AD50 (Rattus norvegicus [1]): >80 mg/kg
Activity (Rattus norvegicus [19]): 0%

COC(=O)[C@@H]1C[C@H]2CC[C@H]([C@H]1Cc1ccccc1)N2C (racemic)
ED50 (Mus musculus [2]): 5.8 mg/kg
AD50 (Rattus norvegicus [1]): >80 mg/kg
Activity (Rattus norvegicus [13]): Toxic
Activity (Mus musculus [20]): Toxic

COC(=O)[C@H]1CCN(C)C[C@H]1c1ccccc1 (relative stereo)
ED50 (Mus musculus [2]): 16 mg/kg
Activity (Rattus norvegicus [21]): inactive
Activity (Rattus norvegicus [22]): Toxic
Activity (Mus musculus [4]): Toxic

COC(=O)[C@H]1C[C@H]2CC[C@@H]3[C@H]1c1cc(O)ccc1CN23
AD50 (Rattus norvegicus [1]): 1.45 mg/kg
Activity (Mus musculus [23]): 100%
Activity (Mus musculus [24]): 0%
Activity (Mus musculus [4]): Toxic
